System: primary astrocytes
Assay: Activation of cultured primary astrocytes, mRNA expression
Format: cell-based, mouse
Details: for transcriptional response of astrocytes to LPS/IFNγ: 1 h pre-treatment (PDMP 25 μM; LacCer 10 μM), LPS 100 ng/ml and IFNγ 100 Units/ml, 6 h
Experimental: FIGS. 3a-m. LacCer produced by B4GALT6 acts in an autocrine manner to boost astrocyte activation. Cultured astrocytes were pre-treated for 1 h with PDMP (25 μM), LacCer (10 μM), both (LacCer+PDMP), or vehicle (vehicle), followed by activation with lipopolysaccharide (100 ng/ml) and Interferon-γ (100 Units/ml) (LPS/IFNγ) or left un-treated (control). (a) Heatmap depicting mRNA expression, as detected by Nanostring nCounter analysis, in astrocytes stimulated with LPS/IFNγ. Representative data of three independent experiments. (b) Histogram presentation of the normalized gene expression presented in (a), statistical analysis by one-way ANOVA followed by Tukey post-hoc analysis. (c-i) The expression of B4galt5 (shB4galt5), B4galt6 (shB4galt6) or non-targeting shRNA (ShControl) in C8-D30 astrocytes was knocked-down using verified shRNA (n≥4). (c) qRT analysis of B4galt5 and B4galt6 mRNA expression. (d-f) astrocytes were activated as in (a) and mRNA expression for (d) H2-Aa, (e) Ccl5 and (f) Cxcl10 was determined; expression is presented relative to house keeping gene (Gapdh) (n≥4). (g) Schematic map of the astrocyte-specific shRNA lentiviral vector. […] NOD mice were injected i.c.v. with 1×10^7 IU of shControl, shB4galt5 or shB4galt6 lentivirus, at day 35 after EAE induction (progressive phase). n=10 mice per group (h, i) 10 days after i.c.v. injection experiment was terminated and (h) b4galt5 and b4galt6 expression levels were determined by qPCR in astrocytes isolated from naïve or EAE NOD mice; expression normalized to gapdh and presented relative to that of cells from naïve mice. Representative data of two independent experiments, Statistical analysis by one-way ANOVA, followed by Tukey post-hoc analysis. (i) LacCer levels were quantified of in the CNS of naïve or EAE NOD mice treated as shown in (j). Statistical analysis by one-way ANOVA, followed by Tukey post-hoc analysis. (j) EAE clinical scores. Representative data of two independent experiments. Statistical analysis as in (FIG. 1a). (k) Cultured primary astrocytes were pre-treated for 1 h with PDMP (25 μM), LacCer (10 μM), both (LacCer+PDMP), or vehicle control (vehicle), followed by activation with LPS/IFNγ for 45 min, or left un-treated (control, Con). IRF-1 and Lamin B expression in the nuclear fraction analyzed by western blot and the degree of IRF-1 translocation to the nucleus was assessed by the ratio between the expression of IRF-1 and Lamin-B in the nuclear fractions following densitometric quantification on four independent experiments (right panel). Statistical analysis by one-way ANOVA, followed by Tukey post-hoc analysis. (l) ChIP analysis of the interaction of NF-κB, and IRF-1 with the) nos2 promoter in primary cultured astrocytes. Experimental design and data analysis as in (FIG. 4c). Data from two independent experiments (m) qPCR analysis of the expression of nos2, csf2, ccl2, ccl5, il6, and tlr2 in astrocyte cultures established from WT or IRF-1 deficient (IRF-1 KO) mice, pre-treated with LacCer or vehicle, and activated with LPS/IFNγ. […]
FIGS. 14a-g. […] (a) Cultured astrocytes were pre-treated for 1 h with PDMP (25 μM), LacCer (10 μM), both (LacCer+PDMP), or vehicle control (vehicle), followed by activation with LPS/IFNγ for 6 h, or left un-treated (control, Con). mRNA expression was analyzed 6 h following activation. qPCR analysis of the expression of cc/5, csf2, nos2, il6, H2-Aa, and tlr2 presented relative to gapdh. […]

CCCCCCCCCC(=O)N[C@H](CN1CCOCC1)[C@H](O)c1ccccc1 [PDMP, D-threo-1-phenyl-2-decanoylamino-3-morpholino-1-propanol]
transcriptional response of astrocytes to LPS/IFNγ: suppressed the transcriptional response | h2-Aa, ccl5 and cxcl10 expression in B4GALT6 knocked-down astrocytes (astrocytes with shB4galt6, PDMP pre-treatment, LPS/IFNγ 6 h): did not further suppress

lactosylceramide [LacCer]
transcriptional response of astrocytes to LPS/IFNγ: boosted the response | astrocyte activation, LacCer added to PDMP (LacCer 10 μM + PDMP 25 μM, LPS/IFNγ): overcame the suppressive effects of PDMP
